What was measured:
Assay type in all cases: in vivo, C57BL/6J mice
[1] = system: TRAMP-C1 tumor; assay: Tumor local temperature under 808 nm NIR laser irradiation (infrared thermal imaging camera); conditions: 6 hours post-injection; 808 nm laser 1.0 W/cm^2, 5 min; ICG 1.6 mg/kg I.V.
Description: (§1) Please refer to FIG. 15. FIG. 15 is a time—temperature figure of the pH-responsive ICG/DOX-loaded NHTPNs of an embodiment in the instant disclosure. […] 6 hours post-injection, the mice (5 in each group) were irradiated at the tumor sites with 808 nm laser (1.0 W/cm^2) for 5 min. The tumor volumes of various groups were measured daily and normalized against the original volumes to assess the antitumor efficacy. The tumor local temperature was monitored by infrared thermal imaging camera.

[2] = system: TRAMP-C1 tumor; assay: ICG fluorescence accumulated in organs and tumor of TRAMP-C1 tumor-bearing mice (IVIS); conditions: 48 hours after tail vein injection; ICG 1.6 mg/kg
Description: (§2) Please refer to FIGS. 12 and 14. […] To establish tumor model, 2×10^7 TRAMP-C1 cells were subcutaneously injected into the right thigh of mice. Two weeks post-inoculation, the low permeability tumor model was established. Tumor volume (V) was calculated as follows: V=L×W^2/2, where W is the tumor measurement at the widest point and L the tumor dimension at the longest point. […] The fluorescence signals of ICG (Ex. 745 nm and Em. 810 nm) at 2, 4, 6, 24 and 48 h post-injection were collected on the IVIS. The treated mice were then sacrificed and the major organs harvested for individual organ imaging by IVIS. After tail vein injection for 48 hours and observation in vivo experiments, the mouse was sacrificed and its major organs and tumors taken for detecting ICG fluorescent performance of each organ using a non-invasive in vivo imaging system (IVIS).

[3] = system: TRAMP-C1 tumor; assay: Tumor growth inhibition (relative tumor volume over 15 days) in TRAMP-C1 tumor-bearing mice; conditions: with NIR laser (+laser)
Description: as §2, §1

For CC1(C)C(/C=C/C=C/C=C/C=C2\N(CCCCS(=O)(=O)O)c3ccc4ccccc4c3C2(C)C)=[N+](CCCCS(=O)(=O)[O-])c2ccc3ccccc3c21 [Free ICG, indocyanine green], the “highest temperature in the tumor” value [1] was 41.4 °C, the “ICG fluorescent expression in the tumor” value [2] was “no fluorescent expression in the tumor” and the “organ in which the ICG fluorescence is expressed” value [2] was “mostly expressed in the liver”. For the same compound, the “tumor growth inhibition effect” value [3] was “no significant tumor growth inhibition effect”.

From patent publication US9980919B2, “Preparation of pH-responsive nanoparticles and promoted delivery of anticancer drugs into deep tumor tissues and application thereof” (NATIONAL TSING HUA UNIVERSITY, priority 2015, dated 2018)
